Source: patent US12570648B2, “6,7-dihydro-5H-pyrido[2,3-c]pyridazine derivatives and related compounds as Bcl-xL protein inhibitors and pro-apoptotic agents for treating cancer” (LES LABORATOIRES SERVIER, priority 2019, dated 2026)
pIC50, pKi: −log10 of the molar value.

Key:
[1] = target: His-His-(EK)-hsBCLXL(2-197)[N197C] (Homo sapiens (Human), UniProt Q07817, N197C); assay: Fluorescence quenching assay; type: binding; details: 1 nM Cy5-labelled protein, 400 nM PUMA peptide, 2 hours at 23° C.; KI determined from IC50
Sequence of His-His-(EK)-hsBCLXL(2-197)[N197C] (Q07817 2-197 N197C): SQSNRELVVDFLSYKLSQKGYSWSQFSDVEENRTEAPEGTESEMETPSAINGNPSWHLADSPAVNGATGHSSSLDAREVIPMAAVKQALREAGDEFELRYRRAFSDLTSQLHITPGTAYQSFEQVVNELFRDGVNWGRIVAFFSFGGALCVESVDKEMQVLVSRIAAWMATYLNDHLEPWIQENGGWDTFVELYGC
Description: Fluorescence quenching assay measures the change in fluorescence intensity of C-terminally Cy5-labelled BCL-xL protein, His-His-(EK)-hsBCLXL(2-197)[N197C] (UniProtKB®
which is linked in C-terminal region to the amino acid X which corresponds to a cysteine labelled on the sulfur with Sulfo-Cyanine5 from Lumiprobe GmbH catalogue number 13380, upon binding of a C-terminally labelled peptide derived from PUMA (UniProtKB® primary accession number Q9BXH1) having an aminoacid sequence (SEQ ID:04): [[…]] which is linked in C-terminal region to the amino acid X′ where X′ is cysteine labelled on the sulfur with TQ5WS from AAT Bioquest catalogue number 2079.
The addition of a compound which binds competitively to the same site as the peptide will result in an increase in the fluorescence intensity of the protein due to displacement of the fluorescence quencher.
An 11-point serial dilution of each compound was prepared in DMSO, the final buffer conditions were 10 mM 4-(2-hydroxyethyl)-1-piperazineethanesulfonic acid [HEPES], 150 mM NaCl, 0.05% Tween 20, pH 7.4 and 5% DMSO. The final protein concentration in the assay was 1 nM with the peptide present at 400 nM. The experiments were incubated for 2 hours at 23° C. before fluorescence intensity was measured on a Biotek SynergyNeo plate reader (Excitation 620 nm, emission 680 nm). […] The K1 values were determined from the IC50 values according to Cer et al, Nucleic Acids Res, 2009, Jul. 1; 37 (WebServer issue): W441-W445.

[2] = system: MOLT-4 cells; assay: MOLT-4 cell viability using MTT assay; type: cell-based; details: Homo sapiens, MOLT-4, 48 h, 48 h exposure
Description: MTT colorimetric assay is based on the mitochondrial reduction of tetrazolium salt by living cells.
Cells were cultured at 37° C. in a humidified atmosphere containing 5% CO2. […] At the end of incubation time, 15 μL of MTT solution (5 mg/ml) were added per well and the cells were incubated for another 4 h. […] IC50s were calculated using standard four-parametric curve fitting.

Compound	pKi [1]	pIC50 [2]
Cc1c(Nc2nc3ccccc3s2)nnc2c1CCCN2c1ccc(-c2cnn(CC34CC5(C)CC(C)(C3)CC(OCCN(C)CCO)(C5)C4)c2C)c(C(=O)O)n1 [Example 150, 6-[3-(1,3-benzothiazol-2-ylamino)-4-methyl-6,7-dihydro-5H-pyrido[2,3-c]pyridazin-8-yl]-3-[1-[[3-[2-[2-hydroxyethyl(methyl)amino]ethoxy]-5,7-dimethyl-1-adamantyl]methyl]-5-methyl-pyrazol-4-yl]pyridine-2-carboxylic acid]	11.82	9.66
Cc1c(Nc2nc3ccccc3s2)nnc2c1CCCN2c1nc(C(=O)O)c(CCCOc2ccc(C#CC(C)(C)N3CCCC3)cc2F)s1 [Example 81, 2-[3-(1,3-Benzothiazol-2-ylamino)-4-methyl-6,7-dihydro-5H-pyrido[2,3-c]pyridazin-8-yl]-5-[3-[2-fluoro-4-(3-methyl-3-pyrrolidin-1-yl-but-1-ynyl)phenoxy]propyl]thiazole-4-carboxylic acid]	10.82	9.76
COc1ccc2sc(Nc3nnc4c(c3C)CCCN4c3ccc(-c4cnn(CC56CC7(C)CC(C)(C5)CC(OCCN5CCCC5)(C7)C6)c4C)c(C(=O)O)n3)nc2c1 [Example 180, 3-[1-[[3,5-dimethyl-7-(2-pyrrolidin-1-ylethoxy)-1-adamantyl]methyl]-5-methyl-pyrazol-4-yl]-6-[3-[(5-methoxy-1,3-benzothiazol-2-yl)amino]-4-methyl-6,7-dihydro-5H-pyrido[2,3-c]pyridazin-8-yl]pyridine-2-carboxylic acid]		9.89
Cc1c(Nc2nc3ccccc3s2)nnc2c1CCCN2c1nc(C(=O)O)c(CCCOc2ccc(CCCN3CCCC3)cc2F)s1 [Example 69, 2-[3-(1,3-Benzothiazol-2-ylamino)-4-methyl-6,7-dihydro-5H-pyrido[2,3-c]pyridazin-8-yl]-5-[3-[2-fluoro-4-(3-pyrrolidin-1-ylpropyl)phenoxy]propyl]thiazole-4-carboxylic acid]	11.43	8.39
COC(=O)c1nc(N2CCCc3c2nnc(Nc2nc4ccccc4s2)c3C)sc1CCCOc1ccc(C#CCN)cc1F [Example 126, methyl 5-[3-[4-(3-aminoprop-1-ynyl)-2-fluoro-phenoxy]propyl]-2-[3-(1,3-benzothiazol-2-ylamino)-4-methyl-6,7-dihydro-5H-pyrido[2,3-c]pyridazin-8-yl]thiazole-4-carboxylate]	10.17	7.27
Cc1c(Nc2nc3ccccc3s2)nnc2c1CCCN2c1ccc(-c2cnn(CC34CC5CC(C3)CC(OCCN3CCCC3)(C5)C4)c2C)c(C(=O)O)n1 [Example 155, 6-[3-(1,3-benzothiazol-2-ylamino)-4-methyl-6,7-dihydro-5H-pyrido[2,3-c]pyridazin-8-yl]-3-[5-methyl-1-[[3-(2-pyrrolidin-1-ylethoxy)-1-adamantyl]methyl]pyrazol-4-yl]pyridine-2-carboxylic acid]		9.27
Cc1c(Nc2nc3ccccc3s2)nnc2c1CCCN2c1ccc(-c2cnn(CC34CC5(C)CC(C)(C3)CC(OCCN(CCCO)CCCO)(C5)C4)c2C)c(C(=O)O)n1 [Example 137, 6-[3-(1,3-benzothiazol-2-ylamino)-4-methyl-6,7-dihydro-5H-pyrido[2,3-c]pyridazin-8-yl]-3-[1-[[3-[2-[bis(3-hydroxypropyl)amino]ethoxy]-5,7-dimethyl-1-adamantyl]methyl]-5-methyl-pyrazol-4-yl]pyridine-2-carboxylic acid]		8.24
Cc1c(Nc2nc3ccccc3s2)nnc2c1CCCN2c1nc(C(=O)O)c(CCCOc2ccc(C#CCN(CC(C)C)CC(C)C)cc2F)s1 [Example 87, 2-[3-(1,3-Benzothiazol-2-ylamino)-4-methyl-6,7-dihydro-5H-pyrido[2,3-c]pyridazin-8-yl]-5-[3-[4-[3-(diisobutylamino)prop-1-ynyl]-2-fluoro-phenoxy]propyl]thiazole-4-carboxylic acid]	10.36	
CNCCCc1ccc(OCCCc2sc(N3CCCc4c3nnc(Nc3nc5ccccc5s3)c4C)nc2C(=O)O)c(F)c1 [Example 34, 2-{3-[(1,3-Benzothiazol-2-yl)amino]-4-methyl-5H,6H,7H,8H-pyrido[2,3-c]pyridazin-8-yl}-5-(3-{2-fluoro-4-[3-(methylamino)propyl]phenoxy}propyl)-1,3-thiazole-4-carboxylic acid]	11.72	
Cc1c(Nc2nc3ccccc3s2)nnc2c1CCCN2c1nc(C(=O)O)c(CCCOc2cc3c(cc2F)CN(C)CC3)s1 [Example 74, 2-{3-[(1,3-Benzothiazol-2-yl)amino]-4-methyl-5H,6H,7H,8H-pyrido[2,3-c]pyridazin-8-yl}-5-{3-[(7-fluoro-2-methyl-1,2,3,4-tetrahydroisoquinolin-6-yl)oxy]propyl}-1,3-thiazole-4-carboxylic acid]	11.00	
Cc1c(Nc2nc3ccccc3s2)nnc2c1CCCN2c1ccc(-c2cnn(CC34CC5(C)CC(C)(C3)CC(OCCNCCCO)(C5)C4)c2C)c(C(=O)O)n1 [Example 138, 6-[3-(1,3-benzothiazol-2-ylamino)-4-methyl-6,7-dihydro-5H-pyrido[2,3-c]pyridazin-8-yl]-3-[1-[[3-[2-(3-hydroxypropylamino)ethoxy]-5,7-dimethyl-1-adamantyl]methyl]-5-methyl-pyrazol-4-yl]pyridine-2-carboxylic acid]		9.00

Continued, values first:

pKi [1]	pIC50 [2]	Compound
11.25	9.69	Cc1c(Nc2nc3ccccc3s2)nnc2c1CCCN2c1ccc(-c2cnn(CC34CC5(C)CC(C)(C3)CC(OCCN(C)C)(C5)C4)c2C)c(C(=O)O)n1 [Example 95, 6-{3-[(1,3-benzothiazol-2-yl)amino]-4-methyl-6,7-dihydropyrido[2,3-c]pyridazin-8(5H)-yl}-3-[1-({3-[2-(dimethylamino)ethoxy]-5,7-dimethyladamantan-1-yl}methyl)-5-methyl-1H-pyrazol-4-yl]pyridine-2-carboxylic acid]
	< 7.00	Cc1c(Nc2nc3ccccc3s2)nnc2c1CCCN2c1ccc(-c2cnn(CC34CC5CC(C3)CC(OCCNCC[C@H](O)CO)(C5)C4)c2C)c(C(=O)O)n1 [Example 160, 6-[3-(1,3-benzothiazol-2-ylamino)-4-methyl-6,7-dihydro-5H-pyrido[2,3-c]pyridazin-8-yl]-3-[1-[[3-[2-[[(3S)-3,4-dihydroxybutyl]amino]ethoxy]-1-adamantyl]methyl]-5-methyl-pyrazol-4-yl]pyridine-2-carboxylic acid]
11.74	9.13	Cc1c(Nc2nc3ccccc3s2)nnc2c1CCCN2c1nc(C(=O)O)c(CCCOc2ccc(C#CCNCCN(C)C)cc2F)s1 [Example 76, 2-[3-(1,3-Benzothiazol-2-ylamino)-4-methyl-6,7-dihydro-5H-pyrido[2,3-c]pyridazin-8-yl]-5-[3-[4-[3-[2-(dimethylamino)ethylamino]prop-1-ynyl]-2-fluoro-phenoxy]propyl]thiazole-4-carboxylic acid]
11.85	10.26	Cc1c(Nc2nc3ccccc3s2)nnc2c1CCCN2c1ccc(-c2cnn(CC34CC5(C)CC(C)(C3)CC(OCCN3CCCCC3)(C5)C4)c2C)c(C(=O)O)n1 [Example 143, 6-[3-(1,3-benzothiazol-2-ylamino)-4-methyl-6,7-dihydro-5H-pyrido[2,3-c]pyridazin-8-yl]-3-[1-[[3,5-dimethyl-7-[2-(1-piperidyl)ethoxy]-1-adamantyl]methyl]-5-methyl-pyrazol-4-yl]pyridine-2-carboxylic acid]
11.68	9.86	Cc1c(Nc2nc3ccccc3s2)nnc2c1CCCN2c1ccc(-c2cnn(CC34CC5(C)CC(C)(C3)CC(OCCN3CCCC3)(C5)C4)c2C)c(C(=O)O)n1 [Example 127, 6-[3-(1,3-benzothiazol-2-ylamino)-4-methyl-6,7-dihydro-5H-pyrido[2,3-c]pyridazin-8-yl]-3-[1-[[3,5-dimethyl-7-(2-pyrrolidin-1-ylethoxy)-1-adamantyl]methyl]-5-methyl-pyrazol-4-yl]pyridine-2-carboxylic acid]
11.77		Cc1c(Nc2nc3cc(O)ccc3s2)nnc2c1CCCN2c1ccc(-c2cnn(CC34CC5(C)CC(C)(C3)CC(OCCN3CCCC3)(C5)C4)c2C)c(C(=O)O)n1 [Example 152, 3-[1-[[3,5-dimethyl-7-(2-pyrrolidin-1-ylethoxy)-1-adamantyl]methyl]-5-methyl-pyrazol-4-yl]-6-[3-[(5-hydroxy-1,3-benzothiazol-2-yl)amino]-4-methyl-6,7-dihydro-5H-pyrido[2,3-c]pyridazin-8-yl]pyridine-2-carboxylic acid]
	9.35	Cc1c(Nc2nc3ccccc3s2)nnc2c1CCCN2c1ccc(-c2cnn(CC34CC5CC(C3)CC(OCCN(C)C)(C5)C4)c2C)c(C(=O)O)n1 [Example 154, 6-[3-(1,3-benzothiazol-2-ylamino)-4-methyl-6,7-dihydro-5H-pyrido[2,3-c]pyridazin-8-yl]-3-[1-[[3-[2-(dimethylamino)ethoxy]-1-adamantyl]methyl]-5-methyl-pyrazol-4-yl]pyridine-2-carboxylic acid]
